Measurements taken from patent publication US7652047B2, “Phenylamino isothiazole carboxamidines as MEK inhibitors” (Ardea Biosciences, Inc., priority 2005, dated 2010).

The molecules below were run against T1, MEK1^CA (human GST-MEK1, constitutively active, Ser218Asp and Ser222Asp) (Homo sapiens, UniProt Q02750, S218D/S222D) (assay: MEK1 enzymatic activity assay (MEK1^CA / ERK2 / MBP, [γ-33P]ATP incorporation)). Details: Table 1, compounds of formula I; read-out: Avg IC50.
T1 construct: GST; made in house; host or cells: Escherichia coli
Type: biochemical
From the text: Materials and preparation of reagents: Human GST-MEK1 and the constitutively active allele GST-MEK1^CA (harboring the mutations Ser218Asp and Ser222Asp) were subcloned into the […] expression vector pGEM4Z (Promega, Madison, Wis.) from the wild type human MEK1 cDNA. GST-MEK1^CA was expressed in Escherichia coli and partially purified using Glutathione Sepharose 4B affinity resin (Amersham Pharmacia Biotech, Piscataway, N.J.). The ERK2 allele was subcloned from MAPK2/Erk2 cDNA (wild type) in pUSEamp (Upstate Biotechnology, Inc., Waltham, Mass.) into the vector pET21a (Novagen, Madison, Wis.) resulting in an N-terminal histidine-tagged mouse ERK2 allele. […] Myelin basic protein (MBP) was purchased from Gibco BRL (Rockville, Md.). EasyTides adenosine 5′-triphosphate (ATP) ([γ-^33P]) (NEN Perkin Elmer, Wellesley, Mass.) was the source of radiolabel for all kinase reactions. Activated Raf-1 (truncated) and activated MAPKinase 2/ERK2 were purchased from Upstate, Inc. (Lake Placid, N.Y.). 4-20% Criterion Precast gels were purchased from Bio-Rad (Hercules, Calif.).
A typical 25-microliter assay contained 0.002 nanomoles MEK1^CA, 0.02 nanomoles ERK2, 0.25 nanomoles MBP, 0.25 nanomoles unlabeled ATP, and 0.1 μCi [γ^33P] ATP. The screening assay essentially comprised four additions. Five μl of diluted compound were dispensed to 96-well assay plates. Ten μl of 2.5× enzyme cocktail (MEK1^CA and ERK2 only) were then added to each well followed by a pre-incubation for 30 minutes at ambient temperature. […] Finally, 100 μl of 10% trichloroacetic acid (TCA) were added and incubated for 30 minutes at room temperature to halt the reaction and precipitate radiolabeled protein products. Reaction products were harvested on glass fiber 96 well filter plates prewetted with water and 1% pyrophosphate. The filter plate was then washed 5 times with water. Water was displaced by absolute ethanol and the plate was allowed to air dry for 30 minutes at room temperature. A back seal was applied manually and 40 μl of scintillation cocktail were dispensed to each well. A top seal was applied and the plate was counted in the TopCount for two seconds per well.

T1 sequence (Q02750 whole entry S218D/S222D): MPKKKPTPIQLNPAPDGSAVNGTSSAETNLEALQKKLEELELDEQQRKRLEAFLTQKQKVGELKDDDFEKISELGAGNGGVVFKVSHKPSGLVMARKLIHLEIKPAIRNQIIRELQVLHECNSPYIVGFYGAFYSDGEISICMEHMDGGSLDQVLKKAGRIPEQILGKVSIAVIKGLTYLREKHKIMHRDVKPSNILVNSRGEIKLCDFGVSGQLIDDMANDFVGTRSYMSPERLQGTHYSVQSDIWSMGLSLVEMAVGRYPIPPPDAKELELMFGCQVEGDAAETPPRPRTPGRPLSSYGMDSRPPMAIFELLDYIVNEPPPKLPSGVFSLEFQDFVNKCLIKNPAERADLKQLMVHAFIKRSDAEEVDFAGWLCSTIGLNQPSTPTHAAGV

Row | Structure (SMILES) | IC50 [nM]
1 | Cc1cc(Oc2ccc(F)cc2Cl)ccc1Nc1snc(O)c1C(=N)N(O)C(C)C [compound 462] | 100 to 500
2 | CC(O)CNC(=N)c1c(O)nsc1Nc1ccc(Oc2ccccc2C(=O)NCC(C)O)cc1 (centres unmarked) [compound 507] | > 500
3 | CC(=O)NC(=N)c1c(O)nsc1Nc1ccc(Oc2ccccc2)cc1 [compound 150] | > 500
4 | CC(CO)NC(=N)c1c(O)nsc1Nc1ccc(Oc2ccccc2F)cc1 (centres unmarked) [compound 372] | 100 to 500
5 | CC[C@H](CO)NC(=N)c1c(O)nsc1Nc1ccc(Oc2cccc(C(F)(F)F)c2)cc1C [compound 474] | 1 to 100
6 | CC[C@H](CO)NC(=N)c1c(O)nsc1Nc1ccc(Oc2ccccc2)cc1 [compound 177] | 100 to 500
7 | CC(CO)NC(=N)c1c(O)nsc1Nc1ccc(Oc2ccc(F)cc2)c(Cl)c1 (centres unmarked) [compound 392] | 100 to 500
8 | CC(CO)NC(=N)c1c(O)nsc1Nc1ccc(Oc2cc(F)ccc2Cl)c(F)c1 (centres unmarked) [compound 322] | 1 to 100
9 | CC(C)NC(=N)c1c(O)nsc1Nc1ccc(Oc2cccc(Cl)c2Cl)c(Cl)c1 [compound 383] | 1 to 100
10 | N=C(NCC1CCCCC1)c1c(O)nsc1NCCc1ccccc1 [compound 120] | > 500
11 | Cc1ccc(Nc2snc(O)c2/C(N)=N/O)cc1 [Cpd 3] | > 500
12 | CC(C)NC(=N)c1c(O)nsc1Nc1ccc(Oc2cccc(C(F)(F)F)c2)nc1 [compound 430] | 100 to 500
13 | CC(CO)NC(=N)c1c(O)nsc1Nc1ccc(Oc2cc(C(F)(F)F)cc(C(F)(F)F)c2)cc1 (centres unmarked) [compound 332] | 100 to 500
14 | CCOCCCNC(=N)c1c(O)nsc1Nc1ccc(Oc2ccccc2)cc1 [compound 49] | 1 to 100
15 | CC(C)NC(=N)c1c(O)nsc1Nc1ccc(Oc2ccc(F)cc2Cl)cc1 [compound 296] | 100 to 500
16 | N=C(NCC1CCCCC1)c1c(O)nsc1Nc1ccc(C(=O)c2ccccc2)cc1 [compound 104] | 100 to 500
17 | Cc1cc(Oc2cccc(F)c2F)ccc1Nc1snc(O)c1C(=N)NC(C)CO (centres unmarked) [compound 464] | 1 to 100
18 | N=C(NCC(O)O)c1c(O)nsc1Nc1ccc(Oc2ccccc2Cl)cc1 [compound 210] | 100 to 500
19 | Cc1ccc(Nc2snc(O)c2C(=N)NC2CCCC2)cc1 [Cpd 2] | 100 to 500
20 | CC(C)NC(=N)c1c(O)nsc1Nc1ccc(Oc2ccc(Cl)cc2)c(Cl)c1 [compound 361] | 100 to 500
21 | N=C(NCCc1ccccc1)c1c(O)nsc1Nc1ccc(Oc2ccccc2)cc1 [Cpd 14] | 100 to 500
22 | CC(C)NC(=N)c1c(O)nsc1Nc1ccc(Oc2ccc(C(F)(F)F)cc2)c(F)c1 [compound 390] | 100 to 500
23 | CC(CO)NC(=N)c1c(O)nsc1Nc1ccc(OCc2ccccc2)cc1 (centres unmarked) [compound 265] | > 500

Row | Structure (SMILES) | IC50 [nM]
24 | Cc1cccc(C)c1Oc1ccc(Nc2snc(O)c2C(=N)NC(C)CO)cc1F (centres unmarked) [compound 276] | > 500
25 | N=C(NCCO)c1c(O)nsc1Nc1ccc(C2CCCCC2)cc1 [compound 172] | > 500
26 | CCCCNC(=N)c1c(O)nsc1Nc1ccc(Oc2ccccc2)cc1 [Cpd 27] | 100 to 500
27 | CC(C)NC(=N)c1c(O)nsc1Nc1ccc(Oc2ccc(Cl)cc2Cl)cc1 [compound 232] | 1 to 100
28 | N=C(NCC1CCCCC1)c1c(O)nsc1Nc1ccc2c(c1)Cc1ccccc1-2 [compound 111] | > 500
29 | N=C(NCC1CCCCC1)c1c(O)nsc1Nc1ccc(C(F)(F)F)cc1Cl [compound 98] | > 500
30 | N=C(NCC(O)CO)c1c(O)nsc1Nc1ccc(Oc2ccccc2)cc1 (centres unmarked) [compound 40] | 1 to 100
31 | COc1ccc(Nc2snc(O)c2C(=N)NCC2CCCCC2)cn1 [compound 77] | 1 to 100
32 | CNC(=N)c1c(O)nsc1Nc1ccc(Oc2ccc(F)cc2)c(Br)c1 [compound 230] | > 500
33 | N=C(NCC(O)CO)c1c(O)nsc1Nc1ccc(I)cc1 (centres unmarked) [compound 216] | > 500
34 | Cc1cc(Oc2ccccc2)ccc1Nc1snc(O)c1C(=N)NC(C)CO (centres unmarked) [compound 335] | 1 to 100
35 | CC(CO)NC(=N)c1c(O)nsc1Nc1ccc(Oc2ccc(Cl)cc2)c(Cl)c1 (centres unmarked) [compound 359] | 100 to 500
36 | Cc1cc(Nc2snc(O)c2C(=N)NC(C)CO)ccc1Oc1ccccc1 (centres unmarked) [compound 324] | 100 to 500
37 | CC(C)NC(=N)c1c(O)nsc1Nc1ccc(Oc2cccc(C(F)(F)F)c2)cc1 [compound 275] | 1 to 100
38 | COCC(C)NC(=N)c1c(O)nsc1Nc1ccc(Oc2ccccc2)cc1 (centres unmarked) [compound 178] | 1 to 100
39 | CNC(=N)c1c(O)nsc1Nc1ccc(Oc2ccccc2)c(F)c1 [compound 309] | > 500
40 | Cc1ccc(Oc2ccc(Nc3snc(O)c3C(=N)NC(C)C)cc2)cc1 [compound 246] | 1 to 100
41 | Cc1cc(Nc2snc(O)c2C(=N)NCC2CCCCC2)c2ccccc2n1 [compound 107] | > 500
42 | Cc1cc(C#N)cc(C)c1Oc1ccc(Nc2snc(O)c2C(=N)NC(C)C)cc1Cl [compound 285] | > 500
43 | CC(CO)NC(=N)c1c(O)nsc1Nc1ccc(Oc2ccc(F)cc2Cl)cc1C(F)(F)F (centres unmarked) [compound 408] | 1 to 100
44 | CCOC(=O)c1cccc(Nc2snc(O)c2C(=N)NCC(O)O)c1 [compound 498] | 100 to 500
45 | Cc1cc(Nc2snc(O)c2C(=N)NC(C)C)ccc1Oc1cc(F)ccc1Cl [compound 380] | 100 to 500
46 | N=C(NCCN1CCNCC1)c1c(O)nsc1Nc1ccc(Oc2cc(F)cc(F)c2)cc1 [compound 412] | 1 to 100

Row | Structure (SMILES) | IC50 [nM]
47 | Cc1ccc(Oc2ccc(Nc3snc(O)c3C(=N)NCC3CCCCC3)cn2)cn1 [compound 134] | > 500
48 | Cc1ccc(Nc2snc(O)c2C(=N)NN2CCOCC2)cc1 [Cpd 5] | 100 to 500
49 | N=C(NCCN1CCNCC1)c1c(O)nsc1Nc1ccc(Oc2ccc(Cl)cc2Cl)cc1 [compound 428] | 100 to 500
50 | COCC(C)NC(=N)c1c(O)nsc1Nc1ccc(Oc2cc(F)cc(F)c2)cc1C (centres unmarked) [compound 467] | 1 to 100
51 | CC(C)(C)C(CO)NC(=N)c1c(O)nsc1Nc1ccc(Oc2ccccc2)cc1 (centres unmarked) [compound 180] | 100 to 500
52 | CC(C)NC(=N)c1c(O)nsc1Nc1ccc(Oc2cccc(N(C)C)c2)cc1 [compound 260] | 100 to 500
53 | N=C(NCC1CCCCC1)c1c(O)nsc1Nc1ccccc1 [compound 93] | > 500
54 | CN(O)C(=N)c1c(O)nsc1Nc1ccc(Oc2ccccc2)cc1 [compound 139] | 100 to 500
55 | N=C(NCC1CCCCC1)c1c(O)nsc1Nc1cccc([N+](=O)[O-])c1 [compound 82] | 100 to 500
56 | Cc1cccc(Oc2ccc(Nc3snc(O)c3C(=N)NC(C)C)cc2)c1 [compound 291] | 1 to 100
57 | CC(CO)NC(=N)c1c(O)nsc1Nc1ccc(Oc2cccc(C(F)(F)F)c2)nc1 (centres unmarked) [compound 433] | 1 to 100
58 | CC(CO)NC(=N)c1c(O)nsc1Nc1ccc(Oc2cccc(F)c2)c(F)c1 (centres unmarked) [compound 362] | 1 to 100
59 | N=C(NCCN1CCOCC1)c1c(Nc2ccc(Oc3ccccc3)cc2)s[nH]c1=O [compound 54] | 100 to 500
60 | Cc1cc(Nc2snc(O)c2C(=N)NC(C)C)ccc1Oc1ccc(F)cc1 [compound 397] | > 500
61 | CC(C)NC(=N)c1c(O)nsc1Nc1ccc(Oc2ccccc2Cl)c(F)c1 [compound 277] | 1 to 100
62 | CCn1sc(Nc2ccc(Oc3ccccc3)cc2)c(C(=N)NC(C)C)c1=O [compound 194] | > 500
63 | CC(C)NC(=N)c1c(O)nsc1Nc1ccc(Oc2cccc3ccccc23)cc1 [compound 340] | 1 to 100
64 | Cc1ccc(Oc2ccc(Nc3snc(O)c3C(=N)NCC3CCCCC3)cc2)cn1 [compound 124] | 100 to 500
65 | CC(C)NC(=N)c1c(O)nsc1Nc1ccc(Oc2cc(C(F)(F)F)ccc2F)cc1 [compound 355] | 1 to 100
66 | N=C(NN1CCCCC1)c1c(O)nsc1Nc1ccc(Oc2cc(F)cc(F)c2)cc1 [compound 435] | 1 to 100
67 | CC(NC(=N)c1c(O)nsc1Nc1ccc(Oc2ccccc2)cc1)c1ccc(F)cc1 (centres unmarked) [compound 29] | 100 to 500

Same assay, conditions: Table 2, Ar1-A contains an amido or indolo group; read-out: IC 50

Row | Structure (SMILES) | IC50 [nM]
68 | N=C(NCCCCO)c1c(O)nsc1Nc1ccc(C(=O)NCCCCO)cc1 [E-15] | > 1000
69 | CN1CCN(C(=O)c2ccc(Nc3snc(O)c3C(=N)NCCO)cc2)CC1 [E-18] | > 1000
70 | CNC(=N)c1c(O)nsc1Nc1ccc(C(=O)N2CCc3cc(Cl)ccc32)cc1 [E-21] | 200 to 1000
71 | CC(C)NC(=N)c1c(O)nsc1Nc1ccc(C(=O)N2CCN(C)CC2)cc1 [E-19] | > 1000
72 | N=C(NCCCCO)c1c(O)nsc1Nc1ccc(C(=O)Nc2ccccc2)cc1 [E-6] | > 1000

Same assay, conditions: Table 3, benzamides of formula X; read-out: IC 50

Row | Structure (SMILES) | IC50 [nM]
73 | N=C(NCC1CCCCC1)c1c(O)nsc1Nc1ccc(C(=O)Nc2ccccc2)cc1 [drawing 811] | > 500

Same assay, conditions: Table 4, R' is (CH2)1 or 2-G; read-out: IC50

Row | Structure (SMILES) | IC50 [nM]
74 | N=C(NCC1CCCCC1)c1c(O)nsc1Nc1ccc(Oc2cncnc2)cc1 [drawing 827] | > 500
